“Also recorded” adds a separate entry of the source.
Experiments:
[1] = system: Gram+ and Gram- bacteria (S. aureus, E. coli, E. faecalis, P. aeruginosa); test: Antibiotic activity, summary over the bacterial strains (Examples 3 and 7); format: cell-based; set-up: activity against Gram+ and Gram− bacteria: dose or concentration left out as unconfirmed; key to Antibiotic activity: low: Weak antibiotic activity on only 1 of the 3 bacterial strains (i.e. S aureus); high: Strong antibiotic activity on all 3 bacterial strains; Significant antibiotic activity on two bacterial strains
Description: Bacterial strains used in this study were: S. aureus (ATCC25923), E. coli (ATCC25922), E. faecalis (ATCC29212) and P. aeruginosa (PA01). Strains were maintained at −80° C. in 15% (v/v) glycerol for cryoprotection. Bacteria were routinely grown in Mueller-Hinton (MH) broth at 37° C.
The susceptibility of bacterial strains to antibiotics and compounds was determined in microplates using the standard broth dilution method in accordance with the recommendations of the Comité de 1′Antibiogramme de la Société Française de Microbiologie (CA-SFM). (Members of the SFM Antibiogram Committee, R. Int. J. Antimicrob. Agents 2003, 21, 364). Briefly, the Minimal Inhibitory Concentrations (MICs) were determined with an inoculum of 10^5 CFU in 200 μL of MH broth containing two-fold serial dilutions of each drug. […] To determine all MICs, the measurements were independently repeated in triplicate.
The compound of formula (Ia) according to the invention was tested against clinical isolates Gram-bacteria (P. aeruginosa, E. coli) and Gram+ bacteria (S. aureus, E. faecalis). Minimum inhibitory concentrations (MIC) were tentatively determined and compared to known antibiotic tetracyclines (doxycycline, demeclocycline, chlortetracycline) and to the compound of formula (B) disclosed in Example 1 of the present application. The test was reproduced twice and the average MIC were calculated.
(§1) The properties of tetracycline derivatives, including the compound of formula (Ia) according to the present invention, were compared regarding the neuroprotection, anti-inflammatory effects, anti-aggregant activity, and antibiotic activity. The properties were evaluated as described herein above.
(§2) EC50s, IC50s determined graphically, *Rescue of dopamine neurons from spontaneous oxidative stress; ** TNF α release inhibition under LPS exposure, ^#Weak antibiotic activity on only 1 of the 3 bacterial strains (i.e. S aureus). ##Strong antibiotic activity on all 3 bacterial strains. ^###Significant antibiotic activity on two bacterial strains.

[2] = system: dopaminergic neurons (TH+ neurons); test: Neuroprotection: rescue of dopamine neurons from spontaneous oxidative stress in primary cultures; format: cell-based; details: for EC50: Neuron, rescue of dopamine neurons from spontaneous oxidative stress, determined graphically, read-out: Neuroprotection (EC 50 μM)
Description: In primary cultures of dopaminergic neurons, TH+ neurons suffer from oxidative stress, leading to the death of the neurons after a few days. When cultured in the presence of a positive reference (apotransferrin), the dopaminergic neurons survive. The neuroprotective effects of 10 μM of doxycycline (DOX) and of 3 μM or 5 μM of the compound of formula (Ia) according to the present invention were evaluated, compared to the effect of 100 μg/mL of apotransferrin (APO).
as §1, §2

[3] = system: formalin-induced pain behavior; test: Formalin-induced nociceptive pain test; format: in vivo, C57/BL6 mice; details: for pain-related responses in the formalin test (overall): mice; for sex dependence of analgesic response: single injection, (C) 10 mg/kg, (Ia) 40 mg/kg, male vs female mice, phase 2
Description: The analgesic effects of the compound of formula (C) described in Example 6 (administered at doses of 5 mg/kg of animal, 10 mg/kg of animal and 20 mg/kg of animal) and the compound of formula (Ia) according to the present invention (administered at doses of 10 mg/kg of animal, 20 mg/kg of animal, and 40 mg/kg of animal) were tested using the formalin-induced nociceptive pain model (as disclosed in the publication Lopes DM, Cater HL, Thakur M et al. “A refinement to the formalin test in mice [version 2; peer review: 2 approved]” F1000Research 2019, 8:891).
To test the anti-pain effects of compounds (Ia) and (C) according to the present invention, a formalin pain test was performed, which consists in subcutaneously injecting 50 μl of a 5.0% formalin solution into the right hind paw of adult C57/BL6 mice (Taylor and Basbaum, J Pain, 2000) before scoring pain behavior. The intensity of pain was estimated by recording the cumulative time (sec) during which animals develop a licking/bitting behavior in response to formalin injection. This response is divided into a transient early (Phase I) phase followed by a more prolonged late (Phase II) phase. Pain scoring is performed by experimenters blinded to test treatments using a video recording of formalin-induced pain behavior.

[4] = system: microglia cells (TNF α release under LPS); test: Anti-inflammatory effect in microglia, TNF α release inhibition under LPS exposure; format: cell-based; details: for Anti inflammatory effects (IC 50 in μM): TNF α release inhibition under LPS exposure, determined graphically
Description: Microglia is in charge of the protection of the neurons. However, under stress conditions, microglia cells are responsible of inflammatory phenomena, leading eventually to the death of the neurons. The anti-inflammatory effects of 5 μM and 20 μM of compound of formula (B) presented in Example 1, of 5 μM and 20 μM of compound of formula (Ia) according to the present invention and of 50 μM of doxycycline (DOX) were evaluated, compared to the effect of 2.5 μM of dexamethasone (DEX). Microglia is in charge of the protection of the neurons. However, under stress conditions, microglia cells are responsible of inflammatory phenomena, leading eventually to the death of the neurons. The anti-inflammatory effects of 10 μM and 20 μM of compound of formula (C) (“10 μM (C)” and “20 μM (C)”) and of 10 μM and 20 μM of compound of formula (Ia) according to the present invention (“10 μM (Ia)” and “20 μM (Ia)”) were evaluated, compared to the effect of 2.5 μM of dexamethasone (“DEX”). The properties of tetracycline derivatives, including the compound of formula (Ia) according to the present invention, were compared regarding the neuroprotection, anti-inflammatory effects, anti-aggregant activity, and antibiotic activity. The properties were evaluated as described herein above. EC50s, IC50s determined graphically, *Rescue of dopamine neurons from spontaneous oxidative stress; ** TNF α release inhibition under LPS exposure, ^#Weak antibiotic activity on only 1 of the 3 bacterial strains (i.e. S aureus). ##Strong antibiotic activity on all 3 bacterial strains. ^###Significant antibiotic activity on two bacterial strains.

[5] = 10 μM and 20 μM, compared to dexamethasone 2.5 μM

SMILES | activity against Gram+ and Gram− bacteria [1] | neuroprotective effect ([2]; 3 μM and 5 μM, compared to apotransferrin 100 μg/mL) | EC50 [2] | analgesic effects, phases 1 and 2 ([3]; between 20 and 40 mg/kg, sub-chronic regimen, subcutaneous, male adult C57/BL6 mice) | pain-related responses in the formalin test (overall) [3] | anti-nociceptive effects, both phases ([3]; single injection 40 mg/kg prior to formalin) | sex dependence of analgesic response [3] | anti-inflammatory effect (LPS) ([4]; 5 μM and 20 μM, superior to doxycycline 50 μM and compound of formula (B)) | anti-inflammatory effect (LPS) [4, 5] | Anti inflammatory effects (IC 50 in μM) [4] | Antibiotic activity ([1]; summary over bacterial strains) | reduction of nociceptive pain, phase 1 and 2 ([3]; 5 mg/kg, sub-chronic regimen (6 subcutaneous injections), male adult C57/BL6 mice, not different from morphine 10 mg/kg) | anti-nociceptive effects, phases 1 and 2 ([3]; single injection 10 mg/kg prior to formalin, not different from morphine 10 mg/kg)
C[C@H]1c2cccc(O)c2C(=O)C2=C(O)C3C(=O)C(C(N)=O)=C(O)C[C@@H]3[C@@H](O)[C@@H]21 (stereo partly drawn) [Compound of formula (Ia), (4aS,5R,5aR,6R)-3,5,10,12-tetrahydroxy-6-methyl-1,11-dioxo-1,4,4a,5,5a,6,11,12a-octahydrotetracene-2-carboxamide] | did not show any activity | highly protective | 1.58 µM | exerted analgesic effects | reduce pain-related responses; also recorded: showed anti-pain effects | exerted anti-nociceptive effects | females responded more effectively | counteracts inflammatory process | counteracts inflammatory process | yes | – | – | –
NC(=O)C1=C(O)CC2CC3C(=C(O)C2C1=O)C(=O)c1c(O)ccc(Cl)c1[C@H]3O (stereo partly drawn) [Compound of formula (C)] | – | – | 0.81 µM | – | reduce pain-related responses; also recorded: showed anti-pain effects | – | male mice exhibited a better analgesic response | – | unable to counteract the inflammatory process | no | low^# | highly effective | robust anti-nociceptive effects

— patent US20260021119A1, “TETRACYCLINE DERIVATIVES” (ICM (INSTITUT DU CERVEAU ET DE LA MOELLE ÉPINIÈRE), priority 2022, published 2026)
